# Source: patent publication US20060147548A1, “Therapeutic delivery of carbon monoxide” (priority 2002, published 2006)
# Key:
# Myoglobin (Mb) [1] = test: Conversion of myoglobin (Mb) to carbon monoxide myoglobin (MbCO), CO release; assay type: biochemical; details: for conversion of Mb to MbCO: Mb 50 μM, absorption spectrum
# Text: This method has been previously developed to monitor and determine the amount of CO released from CO-RMs (7).
# [2] = molecular target: T1, purified guanylate cyclase (Bos taurus, UniProt P16068); details: in vitro; literature reference (8); cited from earlier work
# T1 sequence (P16068 1-619): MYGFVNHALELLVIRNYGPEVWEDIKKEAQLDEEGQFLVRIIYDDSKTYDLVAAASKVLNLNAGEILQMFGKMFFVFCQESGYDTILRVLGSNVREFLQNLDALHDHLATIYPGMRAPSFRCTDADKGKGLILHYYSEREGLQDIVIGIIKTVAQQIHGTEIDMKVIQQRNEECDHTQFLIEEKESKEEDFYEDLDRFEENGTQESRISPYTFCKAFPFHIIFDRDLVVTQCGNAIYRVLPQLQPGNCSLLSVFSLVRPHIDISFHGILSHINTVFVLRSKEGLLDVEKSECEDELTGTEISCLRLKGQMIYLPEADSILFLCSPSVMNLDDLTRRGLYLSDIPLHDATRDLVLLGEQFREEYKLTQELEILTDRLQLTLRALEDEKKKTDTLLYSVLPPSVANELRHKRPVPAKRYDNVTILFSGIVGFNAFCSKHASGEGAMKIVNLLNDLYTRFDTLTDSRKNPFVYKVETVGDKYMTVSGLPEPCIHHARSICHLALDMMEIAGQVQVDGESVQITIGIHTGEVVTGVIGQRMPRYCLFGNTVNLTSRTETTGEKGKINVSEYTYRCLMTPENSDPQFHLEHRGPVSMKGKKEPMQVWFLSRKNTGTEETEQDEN
# T1 sequence (P19687 1-691 partner): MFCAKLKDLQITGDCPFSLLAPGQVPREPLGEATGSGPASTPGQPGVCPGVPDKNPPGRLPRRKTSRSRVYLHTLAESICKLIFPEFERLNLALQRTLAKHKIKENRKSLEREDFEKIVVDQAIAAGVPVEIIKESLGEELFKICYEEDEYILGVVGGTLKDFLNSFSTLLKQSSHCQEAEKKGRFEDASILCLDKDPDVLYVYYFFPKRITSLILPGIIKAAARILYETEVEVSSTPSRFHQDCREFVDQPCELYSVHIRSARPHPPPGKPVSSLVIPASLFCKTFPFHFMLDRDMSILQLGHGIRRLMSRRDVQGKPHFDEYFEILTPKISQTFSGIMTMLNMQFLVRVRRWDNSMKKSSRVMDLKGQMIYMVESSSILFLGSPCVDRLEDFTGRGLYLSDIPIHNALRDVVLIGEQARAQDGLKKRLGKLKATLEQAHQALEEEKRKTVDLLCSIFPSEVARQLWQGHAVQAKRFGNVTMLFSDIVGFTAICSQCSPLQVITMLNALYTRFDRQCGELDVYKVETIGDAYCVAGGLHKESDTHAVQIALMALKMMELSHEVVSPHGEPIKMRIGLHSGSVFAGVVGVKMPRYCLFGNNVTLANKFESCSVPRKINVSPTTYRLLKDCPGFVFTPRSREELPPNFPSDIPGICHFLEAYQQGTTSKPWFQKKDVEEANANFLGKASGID
# Lewis rats = test: Effect on mean arterial pressure in anaesthetised rats; assay type: in vivo, rat
# Experimental: Lewis rats (280-350 g) were anaesthetised by intramuscular injection of 1 ml/kg Hypnorm. Specially designed femoral artery and venous catheters were then surgically implanted as previously described (5; 6) and blood pressure monitored continuously using a polygraph recorder.
# [3] = test system: isolated aortic rings pre-contracted with phenylephrine; test: Relaxation of isolated rat aortic rings pre-contracted with phenylephrine; assay type: cell-based; details: for relaxation as percentage of the maximal phenylephrine-mediated contraction: Example 1; for percentage of relaxation: Example 4A, 100 μM CORM-3
# Experimental: The method for the preparation of isolated aortic rings has been previously described (5; 7). The thoracic aorta was isolated from Sprague-Dawley rats (350-450 g) and flushed with cold Krebs-Henseleit buffer (4° C., pH 7.4) containing (in mM): 118 NaCl, 4.7 KCl, 1.2 KH2PO4, 1.2 MgSO4.7H2O, 22 NaHCO3, 11 Glucose, 0.03 K^+EDTA, 2.5 CaCl2 and supplemented with 10 AM indomethacin. Each aorta was trimmed of adventitial tissue and ring sections (˜3 mm length) were produced from the mid aortic segment. The rings were then mounted between two stainless steel hooks in 9-ml organ baths containing Krebs-Henseleit buffer which was maintained at 37° C. and continuously gassed with 95% O2-5% CO2. One hook was attached to a Grass FT03 isometric force transducer whilst the other was anchored to a sledge for regulation of the resting tension of the aortic ring. The rings were initially equilibrated for 30 min under a resting tension of 2 g which was previously determined to be optimal. Continuous recording of tension was made on a Grass 7D polygraph (Grass Instruments, Quincy, Mass.) in combination with a Biopac MP100 system using AcqKnowledge™ software (Linton Instruments, Norfolk, UK). Before each protocol was carried out, rings were contracted with a standard dose of KCl (100 mM) in order to provide an internal reference and to control for variability in contractile responsiveness between tissues.
# The preparation of isolated aortic rings and recording of tension was as in Example 1. Before each protocol was carried out, rings were contracted with a standard dose of KCl (100 mM) in order-to provide an internal reference and to control for variability in contractile responsiveness between tissues. […] An additional set of experiments was performed in which the vascular endothelium was removed from the aortic tissue prior to CORM-3 addition.
# human platelets = details: increased cGMP levels by YC-1 in the presence of CO; literature reference (1); cited from earlier work
# Myoglobin (Mb) [4] = details: stated as known; cited from earlier work
# [5] = test system: isolated aortic rings pre-contracted with phenylephrine; details: stated as known; species not given; cited from earlier work
compound,measurement,setting,value
"[C-]#[O+] [CO, carbon monoxide]",conversion of Mb to MbCO,Myoglobin (Mb) [1],rapid conversion to carbon monoxide myoglobin (MbCO)
same,increase of enzymatic activity of purified guanylate cyclase,[2],4.4 fold
"NCC(=O)O.[C-]#[O+].[C-]#[O+].[C-]#[O+].[Cl][Ru] [CORM-3, Ru(CO)3Cl(NH2CH2CO2)]",decrease in MAP,"Lewis rats; CORM-3 30 μmoles/kg i.v. first injection, YC-1 1.2 μmoles/kg i.v. 5 min before",37.0±2.4 mmHg
same,decrease in MAP,"Lewis rats; CORM-3 30 μmoles/kg i.v. second injection, YC-1 1.2 μmoles/kg i.v. 5 min before first injection",22.0±2.3 mmHg
same,decrease in MAP,"Lewis rats; CORM-3 alone 30 μmoles/kg i.v., first injection, recorded 20 min after injection",9.4±2.8 mmHg
same,decrease in MAP,"Lewis rats; CORM-3 alone 30 μmoles/kg i.v., second bolus 20 min after the first",13.3±4.9 mmHg
same,conversion of Mb to MbCO,Myoglobin (Mb) [1],formation of MbCO is observed
same,loss of CO on incubation,Myoglobin (Mb) [1]; incubating overnight at 37° C. in phosphate buffer at pH=7.4,rapidly lost
same,relaxation as percentage of the maximal phenylephrine-mediated contraction,"[3]; CORM-3 25 μM, after first addition, presence of YC-1 (5 μM, 30 min pre-incubation)",33%
same,relaxation as percentage of the maximal phenylephrine-mediated contraction,"[3]; CORM-3 25 μM, after second addition, presence of YC-1 (5 μM, 30 min pre-incubation)",66.6%
same,relaxation as percentage of the maximal phenylephrine-mediated contraction,"[3]; CORM-3 25 μM, after third addition, presence of YC-1 (5 μM, 30 min pre-incubation)",80.9%
same,relaxation as percentage of the maximal phenylephrine-mediated contraction,"[3]; CORM-3 25 AM per addition, after first addition, absence of YC-1",10.3%
same,relaxation as percentage of the maximal phenylephrine-mediated contraction,"[3]; CORM-3 25 AM per addition, after second addition, absence of YC-1",24.1%
same,relaxation as percentage of the maximal phenylephrine-mediated contraction,"[3]; CORM-3 25 AM per addition, after third addition, absence of YC-1",38%
same,relaxation,"[3]; Example 3, 100 μM, within few minutes from addition",approximately 54%
same,percentage of relaxation,"[3]; first addition, in the presence of ODQ (10 μM, 15 min prior)",1.0±0.8%
same,percentage of relaxation,"[3]; first addition, in the presence of glibenclamide (10 μM, 30 min prior)",13.2±4.1%
same,percentage of relaxation,"[3]; first cumulative addition, mean±S.E.M., 6 experiments",37.5±5.3%
same,percentage of relaxation,"[3]; second cumulative addition, mean±S.E.M., 6 experiments",48.2±4.4%
same,percentage of relaxation,"[3]; third cumulative addition, mean±S.E.M., 6 experiments",53.9±4.3%
same,relaxation,"[3]; Example 4B, 25 μM CORM-3, after the third addition, pre-treatment with YC-1 (1 μM, 30 min)",77%
same,relaxation,"[3]; Example 4B, 25 μM CORM-3 alone, after the third addition",approximately 31%
same,effect of YC-1 on CORM-3-mediated relaxation,"[3]; Example 4B, 50 μM and 100 μM CORM-3, YC-1 1 μM pre-treatment",potentiation of relaxation
same,effect of L-NAME on relaxation at increased CORM-3 concentration,"[3]; Example 4C, CORM-3 200 and 400 μM, L-NAME present",reversed
same,relaxation,"[3]; Example 4C, CORM-3 alone, first addition",approximately 37%
same,relaxation,"[3]; Example 4C, CORM-3 first addition, presence of L-NAME (100 μM) in the organ bath",5%
same,response of aortic rings without the endothelium (−E),"[3]; Example 4C, endothelium removed, unless CORM-3 increased to 400 μM",did not respond to CORM-3 in the same way as intact vessels
"[N]=O [NO, nitric oxide]",increase of enzymatic activity of purified guanylate cyclase,[2],130 fold
"OCc1ccc(-c2nn(Cc3ccccc3)c3ccccc23)o1 [YC-1, 3-(5′-hydroxymethyl-2′-furyl)-1-benzyl-indazole, reference compound]",decrease in MAP,"Lewis rats; YC-1 1.2 μmoles/kg i.v., after 5 min, before CORM-3",7.0±1.6 mmHg
same,inhibition of platelet aggregation,human platelets,complete inhibition of platelet aggregation
same,change in vessel contractility,"[3]; Example 4B, pre-treatment with YC-1 alone (1 μM, 30 min)",did not cause any significant change in vessel contractility
"[Fe(SPh)2(2,2′-bipyridine) (CO)2]",release of CO to myoglobin in solution,Myoglobin (Mb) [4],does not release CO to myoglobin in solution
same,dilatation of pre-contracted aortic rings,[5],capable of promoting dilatation of pre-contracted aortic rings
